# From article PMC10220285, “Development of an assay pipeline for the discovery of novel small molecule inhibitors of human glutathione peroxidases GPX1 and GPX4” (Redox Biology, 2023)
# Biological target: T1, GPX1 (Homo sapiens, UniProt P07203)
# T1 construct: made in house; host or cells: E. coli
# T1 sequence (P07203 1-203): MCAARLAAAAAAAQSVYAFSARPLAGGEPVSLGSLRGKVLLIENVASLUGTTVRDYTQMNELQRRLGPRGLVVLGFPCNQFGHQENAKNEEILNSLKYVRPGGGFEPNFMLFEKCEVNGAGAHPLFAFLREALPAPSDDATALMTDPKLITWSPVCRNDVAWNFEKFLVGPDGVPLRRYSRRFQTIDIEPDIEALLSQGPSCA
# Test: Monobromobimane orthogonal endpoint assay, GPX1
# Format: biochemical
# Conditions: initial tests comparing GR-coupled and mBBr assay formats
# Description: As an orthogonal assessment of GPX inhibition, a monobromobimane endpoint assay was used (Fig. 1E). Briefly, 30 μL GPX mixture (0.01% BSA and enzyme [1 nM GPX1 or 25 nM GPX4] in TES buffer) was added to columns 2–24 of 384-well black medium-binding plates (Greiner) using a BioRAPTR FRD. TES buffer was used as a no-enzyme control in column 1. Compounds and controls were added in 11-point dose-response titration and incubated with enzyme for 30 min whereupon 10 μL of 400 μM GSH in TES buffer was added before starting the reaction with the addition of 10 μL 200 μM CHP and the reaction was left at room temperature for 10 min (GPX1) or 15 min (GPX4). Upon GPX activity, GSH was depleted over time, whereupon 500 μM mBBr was added and fluorescence at 394/490 was measured using a Viewlux multimodal detector every 20 s for 20 min.
# Percent activity was determined by first calculating delta RFU (decrease in fluorescence between t = 0 and t = 20/30 min in primary GPX, GR counter-screen, and TXNRD1 assays, or increase in fluorescence between t = 0 and t = 20 min in the Monobromobimane GPX endpoint assay), and normalizing enzyme activity using median delta RFU values for DMSO-treated enzyme control, and DMSO-treated no-enzyme controls.
# Monobromobimane (mBBr) is a heterocyclic compound that reacts readily with low molecular weight thiols, like glutathione. […]
structure (smiles),measurement,value
CC(=O)OC[C@H]1O[C@@H]([S-])[C@H](OC(C)=O)[C@@H](OC(C)=O)[C@@H]1OC(C)=O.CCP(CC)CC.[Au+] [Auranofin],IC50,5.3 µM
